Test results published in the RepoRT retention time repository.

Assay: Agilent ZORBAX 300 SB-C18, 150 × 1 mm, 3.5 µm; A: water + 0.01% heptafluorobutyric acid; B: acetonitrile + 0.01% heptafluorobutyric acid; gradient (min/%B) 0/0 100/90
Details: stereoisomer not certain

LC retention time: 10.7 min
Compound: Cc1ccccc1C=NNC(N)=S
